Results from the NIST ThermoML archive (doi:10.1021/je400243j).
Numbers after ± are expanded uncertainties.

Conditions: 293.15 K, 101.33 kPa, Liquid; for viscosity: Concentric cylinders viscometry; for mass density: Vibrating tube method

Compound CCCCn1cc[n+](CCCS(=O)(=O)O)c1.O=S(=O)([O-])O [1-butyl-3-(3-sulfopropyl)-imidazolium hydrogensulfate] has a viscosity of 1000 ± 100 mPa·s and a mass density of 1346.9 ± 0.8 kg/m3.

CCCCn1cc[n+](CCCCS(=O)(=O)O)c1.O=S(=O)([O-])O [1-butyl-3-(4-sulfobutyl)-imidazolium hydrogensulfate] gave a viscosity of 1592 ± 210 mPa·s and a mass density of 1361.1 ± 0.8 kg/m3.

C[n+]1ccn(CCCS(=O)(=O)O)c1.O=S(=O)([O-])O [1-methyl-3-(3-sulfopropyl)-imidazolium hydrogensulfate] showed a viscosity of 1296 ± 150 mPa·s and a mass density of 1501.7 ± 0.9 kg/m3.

Compound C[n+]1ccn(CCCCS(=O)(=O)O)c1.O=S(=O)([O-])O [1-methyl-3-(4-sulfobutyl)-imidazolium hydrogensulfate] has a viscosity of 1427 ± 180 mPa·s and a mass density of 1464.7 ± 0.8 kg/m3.
